Patent US9857356B2, “Muscle chips and methods of use thereof” (President and Fellows of Harvard College, priority 2011, dated 2018)
Bridges are numbered along the chain shown (N, C = ends). Where no end group is shown, it is not given here.

Assays:
[1] = system: Human umbilical artery vascular smooth muscle; experiment: Vascular muscular thin film (vMTF) contractility assay, films on posts; type: cell-based
Procedure: Human umbilical artery vascular smooth muscle was seeded on thin films at 300 cells/mm^2 in complete M199 medium (M199 supplemented with 10% fetal bovine serum (FBS), penicillin, streptomycin, L-glutamine, glucose and vitamin B12). The tissue was cultured in complete M199 for 48 hours, with a single media change at 24 hours. After 48 hours, the cells were serum starved for an additional 48 hours (M199 supplemented with penicillin, streptomycin, L-glutamine, glucose and vitamin B12, but no FBS).
Muscle thin films were transferred to fresh Tyrode's solution in the testing dish (FIG. 1), which is maintained at 37° C. by a peltier heating system. Films were adhered to Teflon coated posts (FIG. 3) by moving them into close contact using tweezers. The films were imaged using a stereomicroscope outfitted with fluorescent imaging capability. Both brightfield and fluorescent images were captured every thirty seconds. In the experiment shown in FIG. […]
Quantification and analysis of thin film motion was performed using ImageJ (NIH) and MATLAB software. Thresholded fluorescent images (FIG. 4B) were fit to circles whose radii of curvature could be measured (FIG. 4C). Using elasticity theory, the contraction stress necessary to induce the measured changes in curvature were calculated (FIG. 4D). […]

[2] = system: vascular smooth muscle cells; experiment: Horizontal vascular smooth muscle thin film (hMTF) contractility assay; type: cell-based
Procedure: FIG. 12 contrasts the use of fluorescent microscopy and the use of brightfield stereo microscopy of vascular smooth muscle (VSM) horizontal MTFs during an assay of the invention as described in Example 5. The top row depicts fluorescent microscopy photographs of VSM horizontal MTFs comprising fluorescent beads embedded in the PDMS film. […] (A) Photographs taken 5 minutes after the start of the experiment, the films are slightly bent up from the glass due to the initial contraction of VSM. […] Polydimethylsiloxane (PDMS) thin film substrates were fabricated via a multi-step spin coating process. Poly(N-isopropylacrylamide) ([…]) (Polysciences, Inc.) was dissolved at 10 wt % in 99.4% 1-butanol (w/v) and was then deposited as a thin layer onto the open glass islands, then the top protective film layer was peeled off. Sylgard 184 (Dow Corning) polydimethylsiloxane (PDMS) elastomer was mixed at a 10:1 base to curing agent ratio doped with 0.1% by volume […] Fluorospheres (Invitrogen), and spun coated on top of the […] coated glass cover slip which was then cured. The next day, the bottom protective film was peeled off. A mask, printed on transparencies was used to cut the glass into desired shapes. MTFs were released from the cover slip once the cells have formed the appropriate 2D microstructure. The MTFs were either cut out by hand, cut out using a robotic system, pre-cut prior to cell incubation. In one specific example of, e.g., horizontal MTF production, the middle section was cut out, so that only six rectangles remained in the area that had […]). Once the Tyrode's solution cools below 35° C., the […] layer transitions from a hydrophobic state to a hydrophilic state and begins to dissolve. As the […] dissolved the middle section cutout was peeled off the substrate with a pair of tweezers. Once the […] dissolves completely, the contraction of the myocytes pulls the MTF (the remaining rectangles) free from the rigid substrate. In the case of the horizontal MTF, rectangles remain with one end partially fixed to the substrate. Actuation and observation of multiple MTFs was carried out in a physiologic solution (e.g., normal Tyrodes solution). The horizontal […]) fabricated with vascular smooth muscle cells in the presence of fluorescent beads were treated with the endothelium-produced vasoconstrictor endothelin-1 (ET-1) followed by the rho-kinase inhibitor HA-1077. […] Quantification and analysis of thin film motion was performed using ImageJ (NIH) and MATLAB software. From the thresholded fluorescent images the length of the projection of the film on the horizontal plane was tracked throughout the contraction and the radius of curvature calculated. Using elasticity theory, the contraction stress necessary to induce the measured changes in curvature were calculated.

## O=S(=O)(c1cccc2cnccc12)N1CCCNCC1 [HA-1077, fasudil]
[1]; vMTFs, 100 mM HA-1077 following ET-1
  stress after treatment (residual stress): 3.1±0.8 kPa
[2]; 30 minutes after addition of the rho-kinase inhibitor
  effect on VSM horizontal MTFs (FIG. 12C): causes the VSM to completely relax
[2]; hMTFs, 100 mM HA-1077 following ET-1
  change in radius of curvature: rapid increase in radius of curvature

## endothelin-1 (CSCSSLMDKECVYFCHLDIIW; disulfide 1-15, 3-11; ends not checked; UniProt P05305 53-73, looked up) [ET-1, endothelium-produced vasoconstrictor]
[1]; vMTFs stimulated with 50 nM ET-1 at time 0
  increase in cell generated stress: 5.06±0.75 kPa
[2]; 20 minutes after addition of the vasoconstrictor
  effect on VSM horizontal MTFs (FIG. 12B): causes the VSM to contract
[2]; hMTFs stimulated with 50 nM ET-1 at time 0
  change in radius of curvature: decrease in their radii of curvature
